# Assay results published in PubChem BioAssay (NCI).
# “And” between values parts separate entries of the source, which are not always exact repeats. Equal values may be shown once.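 Results reflect a 48-hour exposure of cells in 96-well plates to compound at five concentrations. GI50 marks 50% less growth. The concentration for full growth arrest is given as TGI.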
# Tests used:
# Experiment in all cases: NCI anticancer screen, dose series, 48 h
# OVCAR-4 ovarian = system: OVCAR-4 ovarian
# 786-0 renal = system: 786-0 renal
# ACHN renal = system: ACHN renal
# OVCAR-8 ovarian = system: OVCAR-8 ovarian
# SF-268 CNS = system: SF-268 CNS
# IGROV1 ovarian = system: IGROV1 ovarian
# SK-MEL-5 melanoma = system: SK-MEL-5 melanoma
# CCRF-CEM leukemia = system: CCRF-CEM leukemia
# PC-3 prostate = system: PC-3 prostate
# MOLT-4 leukemia = system: MOLT-4 leukemia
SMILES,GI50 (OVCAR-4 ovarian),TGI (OVCAR-4 ovarian),GI50 (786-0 renal),TGI (786-0 renal),GI50 (ACHN renal),TGI (ACHN renal),GI50 (OVCAR-8 ovarian),TGI (OVCAR-8 ovarian),GI50 (SF-268 CNS),TGI (SF-268 CNS),GI50 (IGROV1 ovarian),TGI (IGROV1 ovarian),GI50 (SK-MEL-5 melanoma),TGI (SK-MEL-5 melanoma),GI50 (CCRF-CEM leukemia),TGI (CCRF-CEM leukemia),GI50 (PC-3 prostate),TGI (PC-3 prostate),GI50 (MOLT-4 leukemia),TGI (MOLT-4 leukemia)
C=C1C(=O)O[C@H]2[C@H]1CC/C(COC(=O)c1cn(C)c3ccccc13)=C\CC[C@@]1(C)O[C@@H]21,1.14 µM,3.04 µM,1.46 µM,2.88 µM,0.828 µM,2.09 µM,0.8 µM,2.4 µM,1.3 µM,2.86 µM,0.692 µM,2.58 µM,1.42 µM,2.77 µM,0.217 µM,0.94 µM,1.47 µM,4.29 µM,0.578 µM,3.54 µM
COc1cccc(-n2ncc3c(N/N=C/c4ccc(C)cc4)ncnc32)c1,> 25 µM,> 25 µM,> 25 µM,> 25 µM,> 25 µM,> 25 µM,> 25 µM,> 25 µM,> 25 µM,> 25 µM,> 25 µM,> 25 µM,> 25 µM,> 25 µM,> 25 µM,> 25 µM,> 25 µM,> 25 µM,> 25 µM,> 25 µM
C/C(=N\NC(=O)CC#N)C(CN1CCCCC1)C(c1ccccc1)c1c(O)c2ccccc2oc1=O (centres undefined),,> 100 µM,,> 100 µM,,> 100 µM,,> 100 µM,,> 100 µM,,> 100 µM,,> 100 µM,,73.5 µM,,> 100 µM,,69.4 µM
c1ccc2cc(Cn3cc[n+](Cc4ccc5ccccc5c4)c3)ccc2c1,0.339 µM,2.97 µM,4.4 µM,19 µM,13.7 µM,27.6 µM,1.64 µM,12.3 µM,1.28 µM,11.1 µM,0.659 µM,3.75 µM,0.258 µM,0.916 µM,1.61 µM,11 µM,0.535 µM,5.6 µM,1.24 µM,8.38 µM
C[C@]12CC[C@@H]3c4ccc(O)cc4CC[C@H]3[C@@H]1CC[C@@H]2NS(=O)(=O)c1cccc(Cl)c1,2.2 µM,10.5 µM,2.47 µM,6.13 µM,2.58 µM,7.69 µM,3.27 µM,13.3 µM,3.23 µM,13.6 µM,4.23 µM,16.8 µM,1.72 µM,3.22 µM,2.94 µM,14.4 µM,2.98 µM,11.9 µM,2.14 µM,8.97 µM
COC1(OC)C2(Cl)C(Cl)=C(Cl)C1(Cl)C1c3ccc(C(C)=O)c4cccc(c34)C12 (centres undefined),,> 100 µM,,> 100 µM,,> 87.4 µM,,> 100 µM,,> 100 µM,,> 100 µM,,27.7 µM,,> 79.2 µM,,> 100 µM,,> 77.6 µM
CC(=O)O[C@@]12CO[C@@H]1C[C@H](O)[C@@]1(C)C(=O)[C@H](O)C3=C(C)[C@@H](OC(=O)[C@H](O)[C@@H](NC(=O)OC(C)(C)C)c4ccccc4)C[C@@](O)([C@@H](OC(=O)c4ccccc4)C12)C3(C)C (some centres undefined),12.6 µM,> 100 µM,0.00549 µM,50 µM,,50 µM and > 100 µM,< 0.005 µM,50 µM,,81.5 µM,0.0357 µM,> 100 µM,< 0.005 µM,9.05 µM and 14.6 µM,< 0.005 µM,29.3 µM and 60.8 µM,< 0.005 µM and 0.0218 µM,50 µM and 80.8 µM,0.0194 µM,52.6 µM
COc1cccc(Sc2ccc([N+](=O)[O-])c3no[n+]([O-])c23)c1,10.1 µM,27 µM,19.5 µM,34.8 µM,2.84 µM,8.78 µM,6.22 µM,24.8 µM,12.5 µM,30 µM,5.63 µM,20.8 µM,15.1 µM,29.5 µM,2.6 µM,8.14 µM,16.9 µM,> 54.5 µM,4.27 µM,16.5 µM
O=C1C=C2C=CC3CC2(O1)C1CCCCN31 (centres undefined),25.8 µM and 22.5 µM and 65 µM,> 100 µM and 92.1 µM,16.3 µM and 15.5 µM and 45.6 µM,41.3 µM and 49.8 µM and > 100 µM,23.9 µM and 15.9 µM and 50.2 µM,> 100 µM and 84.3 µM,,72.6 µM and 40.2 µM and 93.8 µM,25.4 µM and 12.7 µM and 41.2 µM,> 100 µM,,95 µM and 30.8 µM and > 100 µM,15.9 µM and 19.9 µM and 34.9 µM,33.5 µM and 54.5 µM and > 100 µM,15.3 µM and 11 µM and 28.4 µM,96.6 µM and 41.3 µM and 83.3 µM,,> 100 µM and 73.4 µM,,72.6 µM and 56.1 µM and > 100 µM
Cc1c(N)nc([C@H](CC(N)=O)NC[C@H](N)C(N)=O)nc1C(=O)N[C@H](C(=O)N[C@H](C)[C@@H](O)CC(=O)N[C@H](C(=O)NC(O[C@@H]1O[C@@H](C)[C@@H](N)[C@@H](O)[C@H]1O)C(O)c1nc(-c2nc(C(=O)NCCCCN)cs2)cs1)[C@@H](C)O)[C@@H](O[C@@H]1O[C@@H](CO)[C@@H](O)[C@H](O)[C@@H]1O[C@H]1O[C@H](CO)[C@@H](O)[C@H](OC(N)=O)[C@@H]1O)c1c[nH]cn1 (some centres undefined),,> 50 µM,,> 50 µM,,> 50 µM,,> 50 µM,,> 50 µM,,> 50 µM,,> 50 µM,,> 50 µM,,> 50 µM,,> 50 µM
CC/C=C\C[C@H](O)C/C=C1/C(=O)C=C[C@@H]1C/C=C\CCCC(=O)OC(C)C,2.92 µM,14.4 µM,1.9 µM,3.72 µM,1.88 µM,3.79 µM,2.8 µM,8.38 µM,2 µM,6.31 µM,2.43 µM,7.75 µM,1.17 µM,2.51 µM,0.425 µM,2.53 µM,1.58 µM,3.49 µM,1.24 µM,6.36 µM
CCC#CC[C@H](O)C/C=C1/C(=O)C=C[C@@H]1C/C=C\CCCC(=O)OC,2.25 µM,8.64 µM,1.22 µM,2.67 µM,0.947 µM,2.07 µM,1.24 µM,4.76 µM,2.05 µM,9.22 µM,1.93 µM,7.84 µM,0.767 µM,1.46 µM,0.413 µM,5.66 µM,1.42 µM,5.25 µM,0.78 µM,7.17 µM
